Eight molecules from PubChem BioAssay (NCI) can be followed below.

Some test systems named below: NCI-H226 lung; SN12C renal; SNB-75 CNS; UACC-62 melanoma; HS 578T breast; OVCAR-3 ovarian; OVCAR-4 ovarian; SF-268 CNS; MDA-MB-231 breast; BT-549 breast; MDA-MB-435; MCF7 breast; UACC-257 melanoma; 786-0 renal; RXF 393 renal; RPMI-8226 leukemia; MOLT-4 leukemia.
Holding throughout (assay): NCI-60 cell line screen, 48 h

Molecules are shown by their SMILES.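 48-hour exposure; five concentrations; linearly interpolated endpoints. TGI: concentration producing complete growth inhibition.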

Take `CC(C)=CCC[C@](C)(O[C@@H]1O[C@H](CO)[C@@H](O)[C@H](O)[C@H]1O)[C@H]1CC[C@]2(C)[C@@H]1[C@H](O)C[C@@H]1[C@@]3(C)CC[C@H](O)C(C)(C)[C@@H]3[C@@H](O[C@@H]3O[C@H](CO)[C@@H](O)[C@H](O)[C@H]3O)C[C@]12C`: the TGI in the test on NCI-H226 lung, in the test with SN12C renal, with SNB-75 CNS, in the test on UACC-62 melanoma, in the test on HS 578T breast and in the test on OVCAR-3 ovarian was more than 100 µM in each case. The TGI in the test with OVCAR-4 ovarian, in the test with SF-268 CNS, in the test with MDA-MB-231 breast, in the test on BT-549 breast, in the test with MDA-MB-435 and in the test on MCF7 breast was more than 100 µM in each case. Moreover, the TGI in the test on UACC-257 melanoma, with 786-0 renal, with RXF 393 renal and in the test with RPMI-8226 leukemia was more than 100 µM each time.

With `COc1c(C)c(C/C=C(\C)CCCCO)c(OC)c(OC)c1OC`, the TGI with SN12C renal, in the test on SNB-75 CNS, with UACC-62 melanoma, in the test with HS 578T breast, in the test on OVCAR-3 ovarian and with MOLT-4 leukemia was more than 100 µM in each case. For the same molecule, the TGI with OVCAR-4 ovarian, with SF-268 CNS, in the test on MDA-MB-231 breast, with BT-549 breast, in the test on MDA-MB-435 and in the test with MCF7 breast was more than 100 µM each time. Besides, the TGI in the test with UACC-257 melanoma is more than 100 µM; in the test on 786-0 renal, more than 100 µM; with RXF 393 renal, more than 100 µM; in the test on RPMI-8226 leukemia, 35.4 µM.

As for `COc1ccc(CC2c3cc(OC)c(OC)c(OC)c3CC[N+]2(C)C)cc1Oc1ccc(CC2c3cc4c(c(OC)c3CCN2C)OCO4)cc1` (stereo unspecified), the TGI in the test with NCI-H226 lung, in the test with SN12C renal, with SNB-75 CNS, in the test with UACC-62 melanoma, with HS 578T breast and in the test with OVCAR-3 ovarian was more than 100 µM each time. Moreover, the TGI with MOLT-4 leukemia, with OVCAR-4 ovarian, with SF-268 CNS, in the test with MDA-MB-231 breast, with BT-549 breast and with MDA-MB-435 was more than 100 µM each time. The TGI in the test on MCF7 breast, with UACC-257 melanoma, with 786-0 renal and with RXF 393 renal was more than 100 µM throughout.

On to `C/C=C/C(C#N)(Cc1ccccc1)OP1(=O)OC(c2ccccc2)C(C)N1C` (stereo unspecified), for which the TGI was more than 100 µM with SN12C renal; more than 100 µM in the test with SNB-75 CNS; more than 100 µM with UACC-62 melanoma; more than 100 µM with HS 578T breast; more than 100 µM in the test on OVCAR-3 ovarian; 78.4 µM in the test on MOLT-4 leukemia. Also, the TGI with SF-268 CNS, with MDA-MB-231 breast, in the test with BT-549 breast, in the test on MDA-MB-435, in the test on MCF7 breast and in the test with UACC-257 melanoma was more than 100 µM throughout. Further, the TGI with 786-0 renal, with RXF 393 renal and in the test with RPMI-8226 leukemia was more than 100 µM in each case.

`Cc1cc(S(=O)(=O)n2ccnc2Oc2ccccc2)c(SSc2cc(Cl)c(C)cc2S(=O)(=O)n2ccnc2Oc2ccccc2)cc1Cl`: the TGI is more than 100 µM with NCI-H226 lung; more than 100 µM in the test on SN12C renal; more than 100 µM in the test with SNB-75 CNS; more than 100 µM in the test on UACC-62 melanoma; 38.6 µM in the test on HS 578T breast; more than 100 µM in the test on OVCAR-3 ovarian. Further, the TGI in the test with OVCAR-4 ovarian, in the test on SF-268 CNS, with MDA-MB-231 breast, in the test with BT-549 breast, with MDA-MB-435 and with MCF7 breast was more than 100 µM in each case. The TGI in the test on UACC-257 melanoma, with 786-0 renal, in the test with RXF 393 renal and in the test on RPMI-8226 leukemia was more than 100 µM throughout.

For the molecule `COc1ccc2c(c1)CCCN1Cc3cc(OC)c(OC)cc3CC21` (stereo unspecified), the TGI with NCI-H226 lung, in the test with SN12C renal, with SNB-75 CNS, in the test with UACC-62 melanoma, in the test with HS 578T breast and with OVCAR-3 ovarian was more than 100 µM throughout. Also, the TGI with MOLT-4 leukemia, in the test on OVCAR-4 ovarian, in the test on SF-268 CNS, in the test on MDA-MB-231 breast, in the test with BT-549 breast and in the test on MDA-MB-435 was more than 100 µM each time. The TGI in the test with MCF7 breast, in the test on UACC-257 melanoma, in the test with 786-0 renal and with RXF 393 renal was more than 100 µM in each case.

On to `NC1CC(=O)c2csc(Cl)c21` (stereo unspecified), for which the TGI in the test with NCI-H226 lung is 94.6 µM; in the test on SN12C renal, 14.2 µM; in the test on SNB-75 CNS it was 31.8 µM; in the test on UACC-62 melanoma, 24.7 µM; with HS 578T breast, more than 100 µM; in the test on OVCAR-3 ovarian, 30.9 µM. Also, the TGI was 3.87 µM in the test with MOLT-4 leukemia; 68.8 µM in the test on OVCAR-4 ovarian; 31.8 µM in the test with SF-268 CNS; 22.5 µM in the test with MDA-MB-231 breast; 33.4 µM in the test with BT-549 breast; 27.3 µM in the test on MDA-MB-435. The TGI was more than 100 µM in the test with MCF7 breast, 29 µM with UACC-257 melanoma, 2.96 µM in the test with 786-0 renal and 17.8 µM in the test with RXF 393 renal.

As to `Cc1ccsc1C(=O)C(CC(=O)c1cccs1)c1ccsc1` (stereo unspecified), the TGI in the test with NCI-H226 lung, with SN12C renal, in the test with SNB-75 CNS, in the test on HS 578T breast, with OVCAR-3 ovarian and in the test on MOLT-4 leukemia was more than 100 µM in each case. For the same molecule, the TGI in the test with OVCAR-4 ovarian, in the test on SF-268 CNS, in the test with MDA-MB-231 breast, with BT-549 breast, in the test with MDA-MB-435 and in the test with MCF7 breast was more than 100 µM in each case. The TGI in the test with UACC-257 melanoma, in the test on 786-0 renal and in the test with RXF 393 renal was more than 100 µM each time.
